Legend:
[1] = test system: KCHSC; assay: Greenhouse test, pre-emergence (PE) soil application; assay type: in vivo, Kochia scoparia; set-up: key: % effect: 0 = no effect, 100 = full effect vs untreated; conditions: group (B) compound alone, 20 g of AS/ha
Description: (§1) The 1:1 mixture of the two soil types was used specifically for cultivating small-seeded dicotyledonous weed since the standard field soil on its own tends to silt up, which may have an adverse effect on the emergence of small-seeded weeds. The resistances mentioned in the tables were confirmed beforehand in standard monitoring experiments. Nevertheless, the origins examined may have additional, hitherto unconfirmed resistances to various mechanisms of action.
(§2) The pots were then cultivated in a greenhouse (12-16 h light, temperature day 20-22° C., night 15-18° C.) until the time of application. The pots were treated at various BBCH stages of the seeds/plants on a laboratory track sprayer with spray liquors comprising the compositions according to the invention, mixtures of the prior art or the individual components. Application of the active compounds or active compound combinations and wetting agents formulated as WG, WP, EC or otherwise was carried out at the appropriate growth stages of the plants. The amount of water used for spray application was 100-600 l/ha. After the treatment, the plants were returned to the greenhouses and fertilized and watered as required. The pots were cultivated in a greenhouse (12-16 h light, temperature day 20-22° C., night 15-18° C.).
(§3) 3 weeks after the application, the foliar effect was evaluated on a scale of 0-100%:
(§4) 0%=no noticeable effect compared to untreated plants
(§5) 100%=full effect compared to untreated plants
(§6) The following abbreviations were used: • BBCH the BBCH code provides information about the morphological development stage of a plant. Officially, the abbreviation denotes the Biologische Bundesanstalt, Bundessortenamt and CHemische Industrie [Federal Biological Institute for Agriculture and Forestry, Federal Office for Crop Plant Varieties, Chemical Industry]. The range of BBCH 00-10 denotes the germination stages of the seeds until surface penetration. The range of BBCH 11-25 denotes the leaf development stages until stocking (corresponds to the number of tillers or side-shoots). • PE pre-emergence soil application; BBCH of the seeds/plants 00-10 • PO post-emergence application on the green parts of the plants; BBCH of the plants 11-25 • IU soil loamy silt—standard field soil • l/ha liters per hectare • S sensitive—the weed populations are sensitive to the active compounds tested • TSR target-site resistance. The weed populations comprise biotypes having a site-of-action-specific resistance, i.e. the binding site at the site of action is modified as a result of natural mutations in the gene sequence so that the active compounds are no longer able to bind, or bind in an unsatisfactory manner, and are therefore no longer able to act. • NTR non-target-site herbicide resistance; this is differentiated, inter alia, into EMR (Enhanced Metabolic Resistance) (the weed populations comprise biotypes having metabolic resistance, i.e. the plants are capable of metabolizing the active compounds more quickly via enzyme complexes, i.e. the active compounds are degraded more quickly in the plant), into reduced penetration into the plant, reduced translocation in the plant, accelerated excretion. […]

[2] = test system: TTTTT (all resistant and sensitive biotypes); assay: Greenhouse test, PO application, mean over all resistant and sensitive biotypes; assay type: in vivo; conditions: (A) 50, (B) 20, mixture 50 + 20 g of AS/ha; for TTTTT resistant mean (effect): mean of resistant biotypes (n = 17 or n = 15); for TTTTT sensitive mean (effect): mean of sensitive biotypes (n = 11)
Description: as §1, §2, §3, §4, §5, §6

[3] = test system: ALOMY; assay: Greenhouse test, post-emergence (PO) application, foliar effect; assay type: in vivo, Alopecurus myosuroides; conditions: ALOMY sensitive, (A) 50, (B) 20, mixture 50 + 20 g of AS/ha, 3 weeks after application
Description: as §1, §2, §3, §4, §5, §6

[4] = test system: BIDSU; assay: Greenhouse test, pre-emergence (PE) soil application; assay type: in vivo, Bidens subalternans; conditions: group (B) compound alone, 20 g of AS/ha
Description: as §1, §2, §3, §4, §5, §6

[5] = test system: LOLSS; assay: Greenhouse test, post-emergence (PO) application, foliar effect; assay type: in vivo, Lolium spp.; conditions: (A) 50, (B) 20, mixture 50 + 20 g of AS/ha, 3 weeks after application
Description: as §1, §2, §3, §4, §5, §6

[6] = test system: ERIBO; assay: Greenhouse test, pre-emergence (PE) soil application; assay type: in vivo, Erigeron bonariensis; set-up: key: % effect: 0 = no effect, 100 = full effect vs untreated; conditions: group (B) compound alone, 20 g of AS/ha
Description: as §1, §2, §3, §4, §5, §6

[7] = test system: ERICA; assay: Greenhouse test, post-emergence (PO) application, foliar effect; assay type: in vivo, Erigeron canadensis; conditions: (A) 50, (B) 20, mixture 50 + 20 g of AS/ha, 3 weeks after application
Description: as §1, §2, §3, §4, §5, §6

[8] = test system: EPHHL; assay: as above; assay type: in vivo, Euphorbia heterophylla; conditions: (A) 50, (B) 20, mixture 50 + 20 g of AS/ha, 3 weeks after application
Description: as §1, §2, §3, §4, §5, §6

[9] = test system: BRODI; assay: as above; assay type: in vivo, Bromus diformis; conditions: (A) 50, (B) 20, mixture 50 + 20 g of AS/ha, 3 weeks after application
Description: as §1, §2, §3, §4, §5, §6

[10] = test system: ERIBO; assay: as above; assay type: in vivo, Erigeron bonariensis; conditions: (A) 50, (B) 20, mixture 50 + 20 g of AS/ha, 3 weeks after application
Description: as §1, §2, §3, §4, §5, §6

[11] = test system: KCHSC; assay: as above; assay type: in vivo, Kochia scoparia; conditions: (A) 50, (B) 20, mixture 50 + 20 g of AS/ha, 3 weeks after application
Description: as §1, §2, §3, §4, §5, §6

[12] = test system: AMATA; assay: as above; assay type: in vivo, Amaranthus rudis; conditions: (A) 50, (B) 20, mixture 50 + 20 g of AS/ha, 3 weeks after application
Description: as §1, §2, §3, §4, §5, §6

[13] = test system: APESV; assay: as above; assay type: in vivo, Apera spica-venti; conditions: (A) 50, (B) 20, mixture 50 + 20 g of AS/ha, 3 weeks after application
Description: as §1, §2, §3, §4, §5, §6

[14] = test system: CHEAL; assay: Greenhouse test, pre-emergence (PE) soil application; assay type: in vivo, Chenopodium album; set-up: key: % effect: 0 = no effect, 100 = full effect vs untreated; conditions: group (B) compound alone, 20 g of AS/ha
Description: as §1, §2, §3, §4, §5, §6

[15] = test system: AMAPA; assay: Greenhouse test, post-emergence (PO) application, foliar effect; assay type: in vivo, Amaranthus palmeri; conditions: AMAPA resistant - group B (TSR), C1 (TSR) and G (NTR), (A) 50, (B) 20, mixture 50 + 20 g of AS/ha, 3 weeks after application
Description: as §1, §2, §3, §4, §5, §6

[16] = LOLSS resistant - group G (NTR)
[17] = LOLSS resistant group A (TSR, NTR), B (NTR) and C2 (NA)
[18] = LOLSS resistant group A (TSR, NTR), B (TSR, NTR) and C2 (NA)
[19] = ERICA resistant - group B (NA) and G (NTR)
[20] = EPHHL resistant - group B (TSR) and G (NTR)
[21] = EPHHL resistant - group B (TSR)
[22] = BRODI resistant - group A (TSR), B (NTR) and G (NTR)
[23] = ERIBO resistant - group B (NA) and G (NTR)
[24] = KCHSC resistant - group B (TSR)
[25] = AMATA resistant - group B (TSR), C1 (TSR)
[26] = APESV resistant - group B (TSR, NTR) and K1/3 (NA)

Structure (SMILES) | effect on KCHSC resistant - group B (TSR) [1] | effect on KCHSC sensitive [1] | TTTTT resistant mean (effect) [2] [%] | TTTTT sensitive mean (effect) [2] [%] | foliar effect [3] [%] | effect on BIDSU sensitive [4] | foliar effect [5, 16] [%] | foliar effect [5, 17] [%] | foliar effect [5, 18] [%] | foliar effect ([5]; LOLSS sensitive) [%] | effect on ERIBO resistant - group B (NA) and G (NTR) [6] | effect on ERIBO sensitive [6] | foliar effect [7, 19] [%] | foliar effect ([7]; ERICA sensitive) [%] | foliar effect [8, 20] [%] | foliar effect [8, 21] [%] | foliar effect ([8]; EPHHL sensitive) [%] | foliar effect [9, 22] [%] | foliar effect ([9]; BRODI sensitive) [%] | foliar effect [10, 23] [%] | further results
CCOC(=O)c1ccccc1S(=O)(=O)NC(=O)Nc1nc(Cl)cc(OC)n1 [(B4), chlorimuron-ethyl] | 0 | 50 | 31 | 72 | 100 | 90 | 50 | 55 | 0 | 35 | 0 | 100 | 60 | 80 | 30 | 30 | 60 | 70 | 100 | 60 | foliar effect ([10]; ERIBO sensitive): 80%; foliar effect [11, 24]: 0%; foliar effect ([11]; KCHSC sensitive): 90%; foliar effect [12, 25]: 60%; foliar effect ([12]; AMATA sensitive): 30%; foliar effect [13, 26]: 0%; foliar effect ([13]; APESV sensitive): 100%; effect on CHEAL resistant - group B (TSR), C1 (NA) and G (NTR) [14]: 60; effect on CHEAL sensitive [14]: 90; foliar effect [15]: 30%
COC(=O)c1csc(C)c1S(=O)(=O)NC(=O)n1nc(OC)n(C)c1=O [(B5), thiencarbazone-methyl] | 0 | 85 | 25 | 76 | 100 | 75 | 40 | 50 | 0 | 85 | 0 | 60 | 60 | 70 | 30 | 20 | 70 | 50 | 95 | 60 | foliar effect ([10]; ERIBO sensitive): 70%; foliar effect [11, 24]: 0%; foliar effect ([11]; KCHSC sensitive): 90%; foliar effect [12, 25]: 40%; foliar effect ([12]; AMATA sensitive): 30%; foliar effect [13, 26]: 0%; foliar effect ([13]; APESV sensitive): 100%; effect on CHEAL resistant - group B (TSR), C1 (NA) and G (NTR) [14]: 60; effect on CHEAL sensitive [14]: 90; foliar effect [15]: 0%

Source: patent US9439430B2, “Method of controlling resistant harmful plants” (priority 2012, dated 2016)
